Experimental data: the supplement of paper PMC5844555

Key:
Assay in all cases: 3' UTR reporter interaction score (median-centred robust z-score of log2 firefly/Renilla activity); higher = less repression of the 3' UTR reporter
Conditions in all cases: HEK293T; 48 h
[1] = system: BRCA2
In short: (§1)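 The interaction score is based on the log-transformed firefly/Renilla luciferase ratio, scaled as a robust z-score within each plate by median and median absolute deviation and median-centred for each miRNA; more negative scores indicate interaction. It was averaged over at least two independent screens. Readings were taken 48 h after HEK293T cells (10,000/well, 96-well plates) were co-transfected by DharmaFECT Duo with 100 ng firefly luc2P 3' UTR reporter, 20 ng Renilla pRL-TK and 2.5 pmol miRNA mimic.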

[2] = system: EZH2
In short: as §1

[3] = system: FBXW7
In short: as §1

[4] = system: HRAS
In short: as §1

[5] = system: MYB
In short: as §1

[6] = system: MYCN
In short: as §1

[7] = system: MYC
In short: as §1

[8] = system: MYT1L
In short: as §1

[9] = system: NOTCH1
In short: as §1

[10] = system: PHF6
In short: as §1

[11] = system: PHOX2B
In short: as §1

[12] = system: RB1
In short: as §1

[13] = system: TP53
In short: as §1

[14] = system: ZEB2
In short: as §1

Sequence	3' UTR reporter interaction score [1]	3' UTR reporter interaction score [2]	3' UTR reporter interaction score [3]	3' UTR reporter interaction score [4]	3' UTR reporter interaction score [5]	3' UTR reporter interaction score [6]	3' UTR reporter interaction score [7]	3' UTR reporter interaction score [8]	3' UTR reporter interaction score [9]	3' UTR reporter interaction score [10]	3' UTR reporter interaction score [11]	3' UTR reporter interaction score [12]	3' UTR reporter interaction score [13]	3' UTR reporter interaction score [14]
CUGGACUUAGGGUCAGAAGGCC	-1.05	-0.857	-0.885	0.067	1.31	0.447	-0.781	0.968	-1.28	0.77	1.18	1.37	-0.836	2.31
CUGGACUUGGAGUCAGAAGGCC	-0.913	-1.01	-1.21	0.243	1.36	0.91	-0.585	1.12	-1.42	0.484	0.64	-0.493	-0.688	1.96
CUGGAUGGCUCCUCCAUGUCU	-1.72	-1.36	0.945	-0.334	0.532	1.88	-0.501	-0.148	0.182	1.87	1.08	-2.12	0.127	0.281
CUGGCCCUCUCUGCCCUUCCGU	0.17	0.421	-0.17	1.31	0.857	1.01	1.14	0.19	-0.752	-2.64	-0.839	-0.329	-0.27	0.72
CUGGGAUCUCCGGGGUCUUGGUU	-0.371	-0.155	0.0113	-0.593	-0.958	0.56	0.773	-0.147	-0.177	-0.552	0.484	2.57	-1.29	-0.251
CUGUGCGUGUGACAGCGGCUGA	-0.102	-0.315	0.121	-0.943	1.02	0.24	-0.0999	-2.16	0.0936	0.722	-2.14	1.29	0.618	2.18
CUUCUUGUGCUCUAGGAUUGU	-1.63	0.0594	-1.11	0.138	0.218	0.82	0.759	-0.427	-0.719	-0.418	-1.49	0.605	-0.0486	0.0232
CUUGGUUCAGGGAGGGUCCCCA	-0.342	0.379	-2.49	-0.543	0.238	0.421	-0.0193	0.48	-0.824	0.112	0.231	-0.223	-0.22	1.64
CUUUCAGUCGGAUGUUUACAGC	0.0637	-0.714	-0.0926	0.423	0.713	0	-0.326	-0.118	0.359	-0.685	-0.851	0.295	0.358	-0.248
CUUUCAGUCGGAUGUUUGCAGC	-0.362	-0.356	-0.137	0.271	0.557	-0.166	0.164	0.0662	0.454	-0.502	0.68	-0.473	-0.309	0.565
CUUUUUGCGGUCUGGGCUUGC	-0.285	0.547	-2.11	0.493	0.803	0.522	0.829	1.18	-0.155	-1.29	-0.0143	-0.184	-0.0822	-2.61
GAAAACAGCAAUUACCUUUGCA	0.212	0.37	0.0135	-0.7	-1.17	0.734	-0.413	-0.261	-1.34	-0.427	0.0564	0.347	-0.0426	0.263
GAACGCCUGUUCUUGCCAGGUGG	1.57	1.05	-1.79	0.54	0.0781	-0.325	0.431	-0.992	0.125	-1.24	-0.674	0.00732	-0.416	0.419
GAAGGCGCUUCCCUUUAGAGC	0.0383	-1.42	0.412	-1.63	0.182	0.218	-0.899	0.364	-0.268	0.189	1.35	0.388	-0.514	0.676
GAAGGCGCUUCCCUUUGGAGU	0.864	-1.48	0.348	-1.8	-0.216	-0.406	-1.08	0.212	-0.115	0.395	2.09	0.389	-0.237	1.47
GAAGUGCUUCGAUUUUGGGGUGU	0.244	-0.43	-0.253	0.659	0.012	0.643	0.42	-0.424	0.231	0.808	0.548	2.22	-1.53	0.378
GAAGUGUGCCGUGGUGUGUCU	-0.0229	-0.113	1.69	-0.384	-0.373	-0.199	-0.0876	-1.67	-0.516	-0.942	1.74	0.538	0.832	-0.231
GAAGUUGUUCGUGGUGGAUUCG	0.514	-2.16	-1.37	0.113	0.448	-0.332	0.185	-1.32	0.409	-0.491	-0.358	1.05	-1.17	0.478
GACACGGGCGACAGCUGCGGCCC	-0.257	-0.294	-0.302	0.13	0.262	-0.202	-0.271	-0.281	-0.641	1.16	-0.471	1.37	0.243	0.917
